What all share (type): cell-based
Assay [1] has as its system NBT-II cells. Briefly: EMT spot migration assay, EGF induced EMT. The following applies: for IC50: EMT induced by EGF (20 ng/mL), NBT-II cells, read-out: Cell Dispersion IC50 (nM) EGF. The procedure:
(§1) Stably transfected mcherry fluorescence-labeled NET-II cells are maintained in DMEM supplemented with 10% fetal bovine serum (FBS, Thermo Scientific), 1 μg/mL puromycin (Sigma), 100 units/mL penicillin−100 units/mL streptomycin (1×pen-strep, Invitrogen) and 2 mM L-glutamine (Invitrogen).
(§2) Test compounds were purchased from various vendors (Selleck Chemicals, Sigma Aldrich, SYN|thesis Med Chem, and Tocris Bioscience). For screening studies, test compounds at both 0.25 mM and 1.0 mM concentrations in DMSO are prepared, each occupying a single well in columns 2 to 11 of 96-well V-bottom plates (Greiner). For dose response studies, selected test compounds were prepared in duplicate wells and serial diluted in DMSO, starting a 1.0 mM concentration. Compound stock plates were stored at −20° C. and thawed at room temperature before use.
(§3) A schematic for the spot migration assay is illustrated in FIG. 2. Cells were grown up to 80% confluency in tissue culture flasks prior to cell plating. Cells were first trypsinized, concentrated and re-suspended to a density of 5×10^6 cell/mL in CO2 independent medium (Invitrogen) supplemented with 10% FBS. The cell suspension was then evenly aliquoted into the wells of 2 columns of a 96-well V-bottom plate. Using a robotic liquid handling station (Bravo, Agilent Technologies), 0.5 μL of cell suspension was transferred from the 2 columns of the cell suspension-loaded plate and deposited into the center of the wells of 2 columns of a 96-well clear bottom, black assay plate (Corning). This process was repeated six times so that all 96 wells of the assay plate were deposited with a cell suspension spot. The plate was then sealed to minimize evaporation of the cell suspension spots and transferred to a 37° C., 5% CO2 incubator to allow for cells to attach to the culture surface. After one hour, the plate was gently washed with medium once to remove unattached cells, refreshed with 100 μL assay medium (DMEM supplemented with 10% FBS, 1× pen-strep and 2 mM L-glutamine), and then further incubated to allow for cell-cell contacts to establish in the cell colonies.
Four tiled, non-overlapping images were acquired around the center of each well, which were then stitched together during image analysis to generate a montage covering an area of 3.2 mm×3.2 mm. These images (T1) represent the initial state of the cell colonies before EMT induction.
After the T1 images are acquired, 1 μL of test compounds were transferred from compound stock plates and added to the assay plates. […] The cultures were then further incubated overnight.
The next day, 50 μL of growth factor containing medium was added each well of the assay plates. For each of the EGF, HGF or IGF-1 induced EMT spot migration assays, the final growth factor concentrations was adjusted in each well to be 20 ng/mL EGF (Sigma), 4 ng/mL HGF (Calbiochem) or 150 ng/mL IGF-1 (R&D Systems), respectively. The cultures were then incubated for another 24 hours, to allow for EMT and sufficient cell motility/dispersion to occur in the cell colonies.
Finally, the cell colonies were imaged again using the confocal microplate imager as described above. These images (T2) represent the final state of the cell colonies after compound treatment and EMT induction. The acquired T1 and T2 image sets for each assay plate were then subjected to image analysis.
Acquired image sets were loaded into image analysis routine developed using Metamorph software. Briefly, a complete image of the entire cell colony in a well was first obtained by stitching the four tiled, non-overlapping images together. Image analysis consists of counting the cell number and measuring the area occupied by the cells. The positive nuclei were segmented using a wavelet decomposition scheme to remove the photonic noise and the inhomogeneous background. A watershed procedure was used to refine the result by separating the confluent nuclei.

The test system of assay [2] is NBT-II cells. Briefly: EMT spot migration assay, HGF induced EMT. Particulars: EMT induced by HGF (4 ng/mL), read-out: Cell Dispersion IC50 (nM) HGF. The method, then: as §1, §2, §3
After 4 hours of incubation, the cell colonies for each well were imaged using a confocal microplate imager (MetaXpress Ultra, Molecular Devices) with 10× Plan Fluor objective, 561 nm laser excitation and 593/40 nm emission filter configuration. Four tiled, non-overlapping images were acquired around the center of each well, which were then stitched together during image analysis to generate a montage covering an area of 3.2 mm×3.2 mm. These images (T1) represent the initial state of the cell colonies before EMT induction.
After the T1 images are acquired, 1 μL of test compounds were transferred from compound stock plates and added to the assay plates. […]

The test system of assay [3] is SKOV3 cells. As to the kind of experiment: EMT reversal assay (morphology, Western blot) in SKOV3. The following applies: SKOV3, 2 μM for 3 days. The procedure:
(§4) SKOV3, HEY and OVCAR-2 cells were maintained in RPMI (Invitrogen) supplemented with 10% fetal bovine serum (FBS, Thermo Scientific), 1 μg/mL puromycin (Sigma), 100 units/mL penicillin−100 units/mL streptomycin (1× pen-strep, Invitrogen) and 2 mM L-glutamine (Invitrogen). AZD0530 and BIBF-1120 were purchased from Selleck Chemicals and SYN|thesis Med Chem respectively. DMSO was used as a vehicle to dissolve both compounds. A stock concentration of 10 mM was prepared for both compounds and stored at −20° C. and aliquots were thawed at room temperature before use. Cells were grown up to 80% confluency in tissue culture flasks prior to cell plating. Cells were first trypsinized, concentrated and re-suspended to a density of 1×10^6 cell/mL in RPMI supplemented with 10% FBS. For each cell lines, 1×10^5 cells were plated onto 100 mm cell culture treated dishes (Nunc) for each condition. The cells were then allowed to attach to the culture dish surface and grow overnight in 37° C., 5% CO2 incubator. In drug conditions, the cells were then incubated with each of the compounds at a final concentration of 2 μM for 3 days to allow cell-cell contacts to establish in the dispersed culture. The medium was aspirated from the culture dishes and the cells were washed with PBS Ca^2+, Mg^2+ before they were snap-frozen with liquid nitrogen. Cells were lysed with RIPA buffer (Sigma) supplemented with protease inhibitor cocktail (Calbiochem) and phosphatase inhibitor cocktail (Roche). Protein concentration was measured using BCA (Pierce) protocol provided by the manufacturer. 8% polyacrylamide gels were used for the separation of proteins and transferred to PDVF membranes (Millipore). Membranes were blocked in 5% non-fat milk (Bio-rad) and incubated at 4 degree Celsius overnight with primary antibodies. E-cadherin antibody was purchased from BD laboratories, MMP13 antibody was purchased from Millipore and Tubulin was purchased from Sigma. […] The raw intensity of the protein bands were quantified using GeneTools software (Syngene).
Background: A western blot detects proteins with antibodies after separation by electrophoresis.

The test system of assay [4] is HEY cells. As to the kind of experiment: EMT reversal assay (morphology, Western blot) in HEY. Particulars: 2 μM for 3 days. The procedure: as §4
The test system of assay [5] is OVCAR-2 cells. As to the kind of experiment: EMT reversal assay (morphology, Western blot) in OVCAR-2. The following applies: OVCAR-2, 2 μM for 3 days. The method, then: as §4
The subject of assay [6] is NBT-II cells. Briefly: EMT spot migration assay, IGF-1 induced EMT. The following applies: EMT induced by IGF-1 (150 ng/mL), read-out: Cell Dispersion IC50 (nM) IGF-1. The procedure:
as §1, §2
as §3, with “After one hour, the plate was gently washed with medium once to remove unattached cells, refreshed with 100 μL assay medium (DMEM supplemented with 10% FBS, 1× pen-strep and 2 mM L-glutamine), and then further incubated to allow for cell-cell contacts to establish in the cell colonies.” left out

SMILES strings stand for the structures.

In the case of `COc1cc2ncnc(Nc3cccc(Cl)c3)c2cc1OC` [AG 1478], the half-maximal inhibitory concentration (IC50) in assay [1] was determined as 350 nM. The “Cell Dispersion ratio” value in assay [1] (PosCtrl condition: [AG1478]=6.67 microM and [EGF]=20 ng/mL, NegCtrl 2.50±0.12) was determined as 1.48±0.05.
Take `CN1CCN(CCOc2cc(OC3CCOCC3)c3c(Nc4c(Cl)ccc5c4OCO5)ncnc3c2)CC1` [AZD 0530]: the IC50 in assay [1] was 565 nM; in assay [2], 650 nM. Moreover, the Morphology after treatment result in assay [3] (vs DMSO) was “restored the epithelioid-like morphology”; in assay [4] (vs DMSO) it was “restored the epithelioid-like morphology”; in assay [5] (vs DMSO), “formed tighter cobblestone-like cell colonies”. The results for the “E-cadherin protein levels (Western blot)” value in assay [3] (vs vehicle), in assay [4] (vs vehicle) and in assay [5] (vs vehicle) were “greater increase”, “greater increase” and “increased”, respectively. The “MMP13 protein levels (Western blot)” value in assay [3] (vs vehicle) is on record as “greater reduction”; in assay [4] (vs vehicle) it was “greater reduction”; in assay [5] (vs vehicle), “reduced”.
`Cn1cnc2c(F)c(Nc3ccc(Br)cc3Cl)c(C(=O)NOCCO)cc21` [AZD 6244]: the concentration for half-maximal inhibition (IC50) in assay [2] was determined as 471 nM; in assay [6], 534 nM.
As to `Cc1cc(N2CCOCC2)cc2[nH]c(-c3c(NC[C@@H](O)c4cccc(Cl)c4)cc[nH]c3=O)nc12` [BMS 536924], the half-inhibitory concentration (IC50) in assay [1] came to 6600 nM.
Consider `CS(=O)(=O)N1CCN(Cc2cc3nc(-c4cccc5[nH]ncc45)nc(N4CCOCC4)c3s2)CC1` [GDC-0941], for which, in assay [6], the concentration for half-maximal inhibition (IC50) was 490 nM.
Consider `Cn1cc(-c2ccc3nnc(C(F)(F)c4ccc5ncccc5c4)n3n2)cn1` [JNJ.38877605], for which the IC50 in assay [2] was 43 nM.
Consider `S=C(NCc1ccc2c(c1)OCO2)N1CCN(c2ncnc3c2oc2ccccc23)CC1` [MP-470], for which the IC50 in assay [1] was 510 nM; in assay [2], 970 nM; in assay [6], 580 nM.
For the molecule `Cc1ccc(-c2nn(C(C)(C)C)c3ncnc(N)c23)cc1` [PP 1], the IC50 in assay [1] came to 1720 nM.
On to `COc1cc2ncnc(Nc3ccc(O)c(Br)c3)c2cc1OC` [WHI-P 154], for which the 50% inhibitory concentration (IC50) in assay [1] was 590 nM.

As usually defined, the IC50 is the concentration needed to halve the response being measured.

Values taken from patent US9953129B2, “Patient stratification and determining clinical outcome for cancer patients” (Agency for Science, Technology and Research, priority 2011, dated 2018).
